Laboratory results published in PubChem BioAssay AID2060512 (Molecular Pharmacology Branch, DTP, NCI, 2025).

Tested on: 186277-243-T-J2-PDC complex spheroid viability
Assay: Anticancer human tumor 186277-243-T-J2-PDC patient-derived colon adenocarcinoma cell line growth inhibition [GQUAD]
Conditions: for IC50: curve of first compound; for viability, T/C: stronger effect = lower value
Procedure, shortened: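 Viability of tumor cells grown as complex spheroids with endothelial and stromal cells, exposed to drug combinations. Top concentration at or near clinical Cmax (else 10 microM), diluted in half-log increments.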

[1] = second compound 0.0316 µM, first compound 0.0316 µM
[2] = second compound 0.0316 µM, first compound 0.1 µM
[3] = second compound 0.0316 µM, first compound 0.316 µM
[4] = second compound 0.0316 µM, first compound 1 µM
[5] = second compound 0.0316 µM, first compound 3.16 µM
[6] = second compound 0.0316 µM, first compound 10 µM
[7] = second compound 0.1 µM, first compound 0.0316 µM
[8] = second compound 0.1 µM, first compound 0.1 µM
[9] = second compound 0.1 µM, first compound 0.316 µM
[10] = second compound 0.1 µM, first compound 1 µM
[11] = second compound 0.1 µM, first compound 3.16 µM
[12] = second compound 0.1 µM, first compound 10 µM
[13] = second compound 0.316 µM, first compound 0.0316 µM
[14] = second compound 0.316 µM, first compound 0.1 µM
[15] = second compound 0.316 µM, first compound 0.316 µM
[16] = second compound 0.316 µM, first compound 1 µM
[17] = second compound 0.316 µM, first compound 3.16 µM
[18] = second compound 0.316 µM, first compound 10 µM
[19] = second compound 1 µM, first compound 0.0316 µM
[20] = second compound 1 µM, first compound 0.1 µM
[21] = second compound 1 µM, first compound 0.316 µM
[22] = second compound 1 µM, first compound 1 µM
[23] = second compound 1 µM, first compound 3.16 µM
[24] = second compound 1 µM, first compound 10 µM
[25] = second compound 3.16 µM, first compound 0.0316 µM
[26] = second compound 3.16 µM, first compound 0.1 µM
[27] = second compound 3.16 µM, first compound 0.316 µM
[28] = second compound 3.16 µM, first compound 1 µM
[29] = second compound 3.16 µM, first compound 3.16 µM
[30] = second compound 3.16 µM, first compound 10 µM
[31] = second compound 10 µM, first compound 0.0316 µM
[32] = second compound 10 µM, first compound 0.1 µM
[33] = second compound 10 µM, first compound 0.316 µM
[34] = second compound 10 µM, first compound 1 µM
[35] = second compound 10 µM, first compound 3.16 µM
[36] = second compound 10 µM, first compound 10 µM
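For viability, T/C in this document: 100% = DMSO vehicle control viability.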

Question: Which results are given for C#Cc1c(F)ccc2cc(O)cc(-c3ncc4c(N5CC6CCC(C5)N6)nc(OCC56CCCN5CC(F)C6)nc4c3F)c12 (stereo unspecified) + CN(C)c1ccc(Nc2c3ccc(NC(=O)CCN4CCCC4)cc3nc3cc(NC(=O)CCN4CCCC4)ccc23)cc1?
Answer: IC50 (second compound 0.0316 µM): 89.9 nM; IC50 (second compound 0.1 µM): 83.6 nM; IC50 (second compound 0.316 µM): 99.7 nM; IC50 (second compound 1 µM): 84.2 nM; IC50 (second compound 3.16 µM): 135 nM; IC50 (second compound 10 µM): 77 nM; viability, T/C [1]: 82%; viability, T/C [2]: 47.4%; viability, T/C [3]: 21.6%; viability, T/C [4]: 16.9%; viability, T/C [5]: 6.89%; viability, T/C [6]: 7.82%; viability, T/C [7]: 74.2%; viability, T/C [8]: 45.7%; viability, T/C [9]: 18.7%; viability, T/C [10]: 11.1%; viability, T/C [11]: 6.45%; viability, T/C [12]: 7.02%; viability, T/C [13]: 77%; viability, T/C [14]: 50.4%; viability, T/C [15]: 19.8%; viability, T/C [16]: 14.4%; viability, T/C [17]: 8.31%; viability, T/C [18]: 7.51%; viability, T/C [19]: 74.6%; viability, T/C [20]: 46.6%; viability, T/C [21]: 21.3%; viability, T/C [22]: 16.1%; viability, T/C [23]: 14.3%; viability, T/C [24]: 6.27%; viability, T/C [25]: 73.9%; viability, T/C [26]: 59.6%; viability, T/C [27]: 22.9%; viability, T/C [28]: 8.92%; viability, T/C [29]: 8.54%; viability, T/C [30]: 5.1%; viability, T/C [31]: 74.3%; viability, T/C [32]: 42.1%; viability, T/C [33]: 24.2%; viability, T/C [34]: 12.5%; viability, T/C [35]: 6.96%; viability, T/C [36]: 1.49%

Question: How did the IC50 (second compound 0.0316 µM) turn out when COc1cc(C2c3cc4c(cc3C(OC3OC5COC(C)OC5C(O)C3O)C3COC(=O)C23)OCO4)cc(OC)c1O (stereo unspecified) + CN(C)c1ccc(Nc2c3ccc(NC(=O)CCN4CCCC4)cc3nc3cc(NC(=O)CCN4CCCC4)ccc23)cc1 was run?
Answer: Its IC50 is 767 nM.

Question: And the IC50 (second compound 0.1 µM)?
Answer: Its IC50 is 757 nM.

Question: And the IC50 (second compound 0.316 µM)?
Answer: The IC50 was 915 nM.

Question: And the IC50 (second compound 1 µM)?
Answer: Its IC50 is 808 nM.

Question: What about the IC50 (second compound 3.16 µM) of the same compound?
Answer: The IC50 was 1340 nM.

Question: What about the IC50 (second compound 10 µM) of the same compound?
Answer: The IC50 was 1460 nM.

Question: What about the viability, T/C [1] of the same compound?
Answer: Its viability, T/C is 112%.

Question: And the viability, T/C [2]?
Answer: The viability, T/C was 99.4%.

Question: What about the viability, T/C [3] of the same compound?
Answer: The viability, T/C was 74.2%.

Question: What about the viability, T/C [4] of the same compound?
Answer: Its viability, T/C is 38.9%.

Question: And the viability, T/C [5]?
Answer: Its viability, T/C is 35%.

Question: What about the viability, T/C [6] of the same compound?
Answer: The viability, T/C was 18.6%.

Question: What about the viability, T/C [7] of the same compound?
Answer: The viability, T/C was 91.5%.

Question: What about the viability, T/C [8] of the same compound?
Answer: Its viability, T/C is 94.5%.

Question: And the viability, T/C [9]?
Answer: The viability, T/C was 72.3%.

Question: What about the viability, T/C [10] of the same compound?
Answer: Its viability, T/C is 40.4%.

Question: And the viability, T/C [11]?
Answer: Its viability, T/C is 34.6%.

Question: And the viability, T/C [12]?
Answer: Its viability, T/C is 18.6%.

Question: What about the viability, T/C [13] of the same compound?
Answer: The viability, T/C was 113%.

Question: What about the viability, T/C [14] of the same compound?
Answer: The viability, T/C was 96.7%.

Question: What about the viability, T/C [15] of the same compound?
Answer: Its viability, T/C is 80.5%.

Question: What about the viability, T/C [16] of the same compound?
Answer: The viability, T/C was 42.8%.

Question: And the viability, T/C [17]?
Answer: Its viability, T/C is 31.7%.

Question: What about the viability, T/C [18] of the same compound?
Answer: The viability, T/C was 15.6%.

Question: And the viability, T/C [19]?
Answer: The viability, T/C was 105%.

Question: What about the viability, T/C [20] of the same compound?
Answer: The viability, T/C was 107%.

Question: What about the viability, T/C [21] of the same compound?
Answer: The viability, T/C was 74.6%.

Question: What about the viability, T/C [22] of the same compound?
Answer: Its viability, T/C is 42.9%.

Question: And the viability, T/C [23]?
Answer: Its viability, T/C is 32.9%.

Question: What about the viability, T/C [24] of the same compound?
Answer: Its viability, T/C is 17.5%.

Question: And the viability, T/C [25]?
Answer: The viability, T/C was 115%.

Question: What about the viability, T/C [26] of the same compound?
Answer: The viability, T/C was 102%.

Question: And the viability, T/C [27]?
Answer: Its viability, T/C is 81.1%.

Question: And the viability, T/C [28]?
Answer: The viability, T/C was 49.6%.

Question: And the viability, T/C [29]?
Answer: Its viability, T/C is 39.9%.

Question: What about the viability, T/C [30] of the same compound?
Answer: Its viability, T/C is 16%.

Question: What about the viability, T/C [31] of the same compound?
Answer: Its viability, T/C is 107%.

Question: What about the viability, T/C [32] of the same compound?
Answer: The viability, T/C was 74.5%.

Question: What about the viability, T/C [33] of the same compound?
Answer: The viability, T/C was 88.6%.

Question: What about the viability, T/C [34] of the same compound?
Answer: The viability, T/C was 50.9%.

Question: And the viability, T/C [35]?
Answer: Its viability, T/C is 37.2%.

Question: What about the viability, T/C [36] of the same compound?
Answer: The viability, T/C was 15.5%.

Question: With COc1ncnc(C2CC2)c1-c1ncc2cnn(Cc3ccc(-c4nc(C(F)(F)F)cn4C(C)C)cc3)c2n1 + CN(C)c1ccc(Nc2c3ccc(NC(=O)CCN4CCCC4)cc3nc3cc(NC(=O)CCN4CCCC4)ccc23)cc1 as the compound, how does the IC50 (second compound 0.0316 µM) read?
Answer: Its IC50 is over 10000 nM.

Question: And the IC50 (second compound 0.1 µM)?
Answer: The IC50 was over 10000 nM.

Question: And the IC50 (second compound 0.316 µM)?
Answer: The IC50 was over 10000 nM.

Question: What about the IC50 (second compound 1 µM) of the same compound?
Answer: Its IC50 is over 10000 nM.

Question: What about the IC50 (second compound 3.16 µM) of the same compound?
Answer: The IC50 was over 10000 nM.

Question: And the IC50 (second compound 10 µM)?
Answer: Its IC50 is over 10000 nM.

Question: And the viability, T/C [1]?
Answer: Its viability, T/C is 106%.

Question: What about the viability, T/C [2] of the same compound?
Answer: Its viability, T/C is 102%.

Question: What about the viability, T/C [3] of the same compound?
Answer: The viability, T/C was 101%.

Question: What about the viability, T/C [4] of the same compound?
Answer: Its viability, T/C is 101%.

Question: What about the viability, T/C [5] of the same compound?
Answer: Its viability, T/C is 106%.

Question: And the viability, T/C [6]?
Answer: The viability, T/C was 98.1%.

Question: And the viability, T/C [7]?
Answer: Its viability, T/C is 102%.

Question: What about the viability, T/C [8] of the same compound?
Answer: The viability, T/C was 93.2%.

Question: What about the viability, T/C [9] of the same compound?
Answer: Its viability, T/C is 105%.

Question: And the viability, T/C [10]?
Answer: The viability, T/C was 94.8%.

Question: And the viability, T/C [11]?
Answer: The viability, T/C was 99%.

Question: And the viability, T/C [12]?
Answer: Its viability, T/C is 98.2%.

Question: What about the viability, T/C [13] of the same compound?
Answer: The viability, T/C was 92.8%.

Question: What about the viability, T/C [14] of the same compound?
Answer: The viability, T/C was 110%.

Question: And the viability, T/C [15]?
Answer: Its viability, T/C is 105%.

Question: And the viability, T/C [16]?
Answer: Its viability, T/C is 98.7%.

Question: And the viability, T/C [17]?
Answer: Its viability, T/C is 103%.

Question: And the viability, T/C [18]?
Answer: Its viability, T/C is 85.6%.

Question: What about the viability, T/C [19] of the same compound?
Answer: The viability, T/C was 100%.

Question: What about the viability, T/C [20] of the same compound?
Answer: The viability, T/C was 114%.

Question: What about the viability, T/C [21] of the same compound?
Answer: The viability, T/C was 101%.

Question: And the viability, T/C [22]?
Answer: The viability, T/C was 107%.

Question: What about the viability, T/C [23] of the same compound?
Answer: The viability, T/C was 112%.

Question: And the viability, T/C [24]?
Answer: Its viability, T/C is 84.3%.

Question: What about the viability, T/C [25] of the same compound?
Answer: The viability, T/C was 99.1%.

Question: What about the viability, T/C [26] of the same compound?
Answer: The viability, T/C was 98%.

Question: And the viability, T/C [27]?
Answer: Its viability, T/C is 113%.

Question: What about the viability, T/C [28] of the same compound?
Answer: Its viability, T/C is 108%.

Question: What about the viability, T/C [29] of the same compound?
Answer: Its viability, T/C is 118%.

Question: What about the viability, T/C [30] of the same compound?
Answer: Its viability, T/C is 95%.

Question: And the viability, T/C [31]?
Answer: Its viability, T/C is 111%.

Question: And the viability, T/C [32]?
Answer: The viability, T/C was 116%.

Question: What about the viability, T/C [33] of the same compound?
Answer: Its viability, T/C is 106%.

Question: And the viability, T/C [34]?
Answer: The viability, T/C was 99.2%.

Question: And the viability, T/C [35]?
Answer: The viability, T/C was 105%.

Question: And the viability, T/C [36]?
Answer: The viability, T/C was 53.8%.
